# Assay results: ChEMBL document CHEMBL1137662, “Effect of oral treatment with hexadecyloxypropyl-[(S)-9-(3-hydroxy-2- phosphonylmethoxypropyl)adenine] [(S)-HPMPA] or octadecyloxyethyl-(S)-HPMPA on cowpox or vaccinia virus infections in mice” (Antimicrob Agents Chemother, 2007)
# Active and inactive are the calls of the source. No cut-off for these calls is given here.
# Key:
# [1] = system: Cowpox virus; experiment: Antiviral activity against Cowpox virus Brighton infected BALB/c mouse assessed as mortality at 3 mg/kg, po treated for 5 days after 48 hrs of viral inoculation; assay type: functional, Cowpox virus (Brighton Red)
# [2] = system: Cowpox virus; experiment: Antiviral activity against Cowpox virus Brighton infected BALB/c mouse assessed as mortality at 10 mg/kg, po treated for 5 days after 48 hrs of viral inoculation; assay type: functional, Cowpox virus (Brighton Red)
# [3] = Selectivity index, ratio of CC50 for HFF cells to EC50 for Vaccinia virus WR; assay type: toxicity, cell-based; conditions: human, read-out: Ratio CC50/EC50
# [4] = system: Vaccinia virus; experiment: Antiviral activity against Vaccinia virus Copenhagen in HFF cells assessed as reduction of viral replication after 3 days; assay type: functional, organism-based; conditions: Orthopoxvirus vaccinia, 72 h
# [5] = Cytotoxicity against HFF cells after 7 days; assay type: cell-based; conditions: human
# [6] = system: Cowpox virus; experiment: Antiviral activity against Cowpox virus Brighton infected BALB/c mouse assessed as log reduction of viral titer per gram of liver at 30 mg/kg, po treated for 5 days after 24 hrs of viral inoculation; assay type: functional, Cowpox virus (Brighton Red)
# [7] = system: Cowpox virus; experiment: Antiviral activity against Cowpox virus Brighton infected BALB/c mouse assessed as log reduction of viral titer per gram of spleen at 30 mg/kg, po treated for 5 days after 24 hrs of viral inoculation; assay type: functional, Cowpox virus (Brighton Red)
# [8] = system: Cowpox virus; experiment: Antiviral activity against Cowpox virus Brighton infected BALB/c mouse assessed as log reduction of viral titer per gram of kidney at 30 mg/kg, po treated for 5 days after 24 hrs of viral inoculation; assay type: functional, Cowpox virus (Brighton Red)
# [9] = system: Cowpox virus; experiment: Toxicity in Cowpox virus Brighton infected BALB/c mouse assessed as survival at 30 mg/kg, po treated for 5 days after 24 hrs of viral inoculation; assay type: functional, organism-based; set-up: dose 30 mg/kg; conditions: Cowpox virus (Brighton Red)
# [10] = system: Cowpox virus; experiment: Antiviral activity against Cowpox virus Brighton infected BALB/c mouse assessed as reduction of virus titer in lung at 30 mg/kg, po treated for 5 days after 24 hrs of viral inoculation; assay type: functional, organism-based; set-up: dose 30 mg/kg; conditions: Cowpox virus (Brighton Red)
# [11] = system: Mus musculus; experiment: Toxicity in BALB/c mouse at 30 mg/kg, po; assay type: organism-based; set-up: dose 30 mg/kg, route oral; conditions: in vivo
# [12] = system: Vaccinia virus; experiment: Antiviral activity against Vaccinia virus WR infected BALB/c mouse assessed as log reduction of viral titer per gram of spleen at 30 mg/kg, po treated for 5 days after 24 hrs of viral inoculation; assay type: functional, Orthopoxvirus vaccinia
# [13] = system: Vaccinia virus; experiment: Antiviral activity against Vaccinia virus WR infected BALB/c mouse assessed as log reduction of viral titer per gram of liver at 30 mg/kg, po treated for 5 days after 24 hrs of viral inoculation; assay type: functional, Orthopoxvirus vaccinia
# [14] = system: Cowpox virus; experiment: Antiviral activity against Cowpox virus Brighton infected BALB/c mouse assessed as mean death day at 3 mg/kg, po treated for 5 days after 72 hrs of viral inoculation; assay type: functional, Cowpox virus (Brighton Red)
# [15] = system: Cowpox virus; experiment: Antiviral activity against Cowpox virus Brighton infected BALB/c mouse assessed as mean death day at 10 mg/kg, po treated for 5 days after 72 hrs of viral inoculation; assay type: functional, Cowpox virus (Brighton Red)
# [16] = system: Cowpox virus; experiment: Antiviral activity against Cowpox virus Brighton infected BALB/c mouse assessed as mean death day at 30 mg/kg, po treated for 5 days after 72 hrs of viral inoculation; assay type: functional, Cowpox virus (Brighton Red)
# [17] = system: Cowpox virus; experiment: Antiviral activity against Cowpox virus Brighton infected BALB/c mouse assessed as mean death day at 10 mg/kg, po treated for 5 days after 48 hrs of viral inoculation; assay type: functional, Cowpox virus (Brighton Red)
# [18] = system: Cowpox virus; experiment: Antiviral activity against Cowpox virus Brighton infected BALB/c mouse assessed as mean death day at 30 mg/kg, po treated for 5 days after 48 hrs of viral inoculation; assay type: functional, Cowpox virus (Brighton Red)
# [19] = system: Cowpox virus; experiment: Antiviral activity against Cowpox virus Brighton infected BALB/c mouse assessed as mean death day at 3 mg/kg, po treated for 5 days after 24 hrs of viral inoculation; assay type: functional, Cowpox virus (Brighton Red)
# [20] = system: Cowpox virus; experiment: Antiviral activity against Cowpox virus Brighton infected BALB/c mouse assessed as mean death day at 10 mg/kg, po treated for 5 days after 24 hrs of viral inoculation; assay type: functional, Cowpox virus (Brighton Red)
# [21] = system: Cowpox virus; experiment: Antiviral activity against Cowpox virus Brighton infected BALB/c mouse assessed as mean death day at 30 mg/kg, po treated for 5 days after 24 hrs of viral inoculation; assay type: functional, Cowpox virus (Brighton Red)
# [22] = system: Cowpox virus; experiment: Antiviral activity against Cowpox virus Brighton infected BALB/c mouse assessed as mortality at 3 mg/kg, po treated for 5 days after 72 hrs of viral inoculation; assay type: functional, Cowpox virus (Brighton Red)
# [23] = system: Cowpox virus; experiment: Antiviral activity against Cowpox virus Brighton infected BALB/c mouse assessed as mortality at 10 mg/kg, po treated for 5 days after 72 hrs of viral inoculation; assay type: functional, Cowpox virus (Brighton Red)
# [24] = system: Cowpox virus; experiment: Antiviral activity against Cowpox virus Brighton infected BALB/c mouse assessed as mortality at 30 mg/kg, po treated for 5 days after 72 hrs of viral inoculation; assay type: functional, Cowpox virus (Brighton Red)
# [25] = system: Cowpox virus; experiment: Antiviral activity against Cowpox virus Brighton infected BALB/c mouse assessed as mortality at 30 mg/kg, po treated for 5 days after 48 hrs of viral inoculation; assay type: functional, Cowpox virus (Brighton Red)
# [26] = system: Cowpox virus; experiment: Antiviral activity against Cowpox virus Brighton infected BALB/c mouse assessed as mortality at 3 mg/kg, po treated for 5 days after 24 hrs of viral inoculation; assay type: functional, Cowpox virus (Brighton Red)
# [27] = system: Cowpox virus; experiment: Antiviral activity against Cowpox virus Brighton infected BALB/c mouse assessed as mortality at 30 mg/kg, po treated for 5 days after 24 hrs of viral inoculation; assay type: functional, Cowpox virus (Brighton Red)
# [28] = system: Vaccinia virus; experiment: Antiviral activity against Vaccinia virus WR infected BALB/c mouse assessed as mean death day at 3 mg/kg, po treated for 5 days after 72 hrs of viral inoculation; assay type: functional, Orthopoxvirus vaccinia
# [29] = system: Vaccinia virus; experiment: Antiviral activity against Vaccinia virus WR infected BALB/c mouse assessed as mean death day at 30 mg/kg, po treated for 5 days after 72 hrs of viral inoculation; assay type: functional, Orthopoxvirus vaccinia
# [30] = system: Vaccinia virus; experiment: Antiviral activity against Vaccinia virus WR infected BALB/c mouse assessed as mean death day at 3 mg/kg, po treated for 5 days after 48 hrs of viral inoculation; assay type: functional, Orthopoxvirus vaccinia
# [31] = system: Vaccinia virus; experiment: Antiviral activity against Vaccinia virus WR infected BALB/c mouse assessed as mean death day at 10 mg/kg, po treated for 5 days after 48 hrs of viral inoculation; assay type: functional, Orthopoxvirus vaccinia
# [32] = system: Vaccinia virus; experiment: Antiviral activity against Vaccinia virus WR infected BALB/c mouse assessed as mean death day at 30 mg/kg, po treated for 5 days after 24 hrs of viral inoculation; assay type: functional, Orthopoxvirus vaccinia
# [33] = system: Vaccinia virus; experiment: Antiviral activity against Vaccinia virus WR infected BALB/c mouse assessed as mortality at 3 mg/kg, po treated for 5 days after 72 hrs of viral inoculation; assay type: functional, Orthopoxvirus vaccinia
# [34] = system: Vaccinia virus; experiment: Antiviral activity against Vaccinia virus WR infected BALB/c mouse assessed as mortality at 10 mg/kg, po treated for 5 days after 72 hrs of viral inoculation; assay type: functional, Orthopoxvirus vaccinia
# [35] = system: Vaccinia virus; experiment: Antiviral activity against Vaccinia virus WR infected BALB/c mouse assessed as mortality at 30 mg/kg, po treated for 5 days after 72 hrs of viral inoculation; assay type: functional, Orthopoxvirus vaccinia
# [36] = system: Vaccinia virus; experiment: Antiviral activity against Vaccinia virus WR infected BALB/c mouse assessed as mortality at 3 mg/kg, po treated for 5 days after 48 hrs of viral inoculation; assay type: functional, Orthopoxvirus vaccinia
# [37] = system: Vaccinia virus; experiment: Antiviral activity against Vaccinia virus WR infected BALB/c mouse assessed as mortality at 30 mg/kg, po treated for 5 days after 48 hrs of viral inoculation; assay type: functional, Orthopoxvirus vaccinia
# [38] = system: Vaccinia virus; experiment: Antiviral activity against Vaccinia virus WR infected BALB/c mouse assessed as mortality at 3 mg/kg, po treated for 5 days after 24 hrs of viral inoculation; assay type: functional, Orthopoxvirus vaccinia
# [39] = system: Vaccinia virus; experiment: Antiviral activity against Vaccinia virus WR infected BALB/c mouse assessed as mortality at 10 mg/kg, po treated for 5 days after 24 hrs of viral inoculation; assay type: functional, Orthopoxvirus vaccinia
# [40] = system: Vaccinia virus; experiment: Antiviral activity against Vaccinia virus WR infected BALB/c mouse assessed as mortality at 30 mg/kg, po treated for 5 days after 24 hrs of viral inoculation; assay type: functional, Orthopoxvirus vaccinia
smiles,measurement,setting,value
CCCCCCCCCCCCCCCCOCCCOP(=O)(O)CO[C@H](CO)Cn1cnc2c(N)ncnc21,Activity,[1],87%
same,Activity,[2],27%
same,selectivity ratio,[3],32
same,EC50,[4],0.01 µM
same,CC50 at 168 h,[5],9.7 µM
same,log10PFU,[6],2.5 g
same,log10PFU,[7],2.5 g
same,log10PFU,[8],2.5 g
same,Activity,[9],Not toxic
same,Activity,[10],inactive
same,Activity,[11],Non-toxic
same,log10PFU,[12],4 g
same,log10PFU,[13],4 g
same,Activity,[14],10.1 days
same,Activity,[15],12.3 days
same,Activity,[16],6.5 days
same,Activity,[17],12.3 days
same,Activity,[18],16.5 days
same,Activity,[19],11.4 days
same,Activity,[20],13.8 days
same,Activity,[21],15 days
same,Activity,[22],87%
same,Activity,[23],73%
same,Activity,[24],13%
same,Activity,[25],13%
same,Activity,[26],93%
same,Activity,[27],13%
same,Activity,[28],7.8 days
same,Activity,[29],8 days
same,Activity,[30],9.2 days
same,Activity,[31],8 days
same,Activity,[32],7 days
same,Activity,[33],87%
same,Activity,[34],53%
same,Activity,[35],7%
same,Activity,[36],33%
same,Activity,[37],7%
same,Activity,[38],27%
same,Activity,[39],0%
same,Activity,[40],13%
